The text below walks through data of PubChem BioAssay (NCI).

The structures appear in SMILES notation. Several values for one entry are separate records, joined by “and”; a condition that tells them apart may be missing. Identical values can stand only once.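 1) Cells in 96-well plates. 2) Compound, 48 h, 5 concentrations. 3) Linear interpolation between surrounding doses. 4) Unreached endpoint = highest concentration. GI50: concentration for 50% inhibition of growth. Definition used: TGI = concentration required for complete inhibition of growth.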

One experiment has as its system ACHN renal. In words: DTP human tumour cell line panel, 48 h.
Regarding `O=S(=O)(CCOCc1ccc(-c2ccc3ncnc(Nc4ccc(OCc5cccc(F)c5)c(Cl)c4)c3c2)o1)c1ccccc1`, the GI50 is 1.86 µM and the total growth inhibition concentration (TGI) is greater than 25 µM.
For `CNC(=O)c1cc2c(Oc3ccc(NC(=O)C4(C(=O)Nc5ccc(F)cc5)CC4)cc3)ccnc2cc1OC` the same measures were 2.31 µM and greater than 100 µM.
For `O=S1(=O)NCCCN1CCNc1nccc(-c2c(-c3cccc(O)c3)nc3sccn23)n1` the same measures were 11.8 µM and greater than 100 µM.
For `O=C(c1ccc2ccccc2c1)c1c(C(F)(F)F)n([O-])c2ccc(Cl)cc2[n+]1=O` the same measures were 1.63 µM and 2.98 µM.
`Cc1cn(C2OC(C)(CO)C(O)C2O)c(=O)[nH]c1=O` (stereo not given): the total growth inhibition concentration (TGI) is greater than 100 µM.
For `NC(=O)c1cccc(Nc2nccc(Nc3cccc(F)c3)n2)c1`, the GI50 is 8.83 µM and the TGI is greater than 25 µM.
Consider `CCN(CC)CCNC(=O)c1c(C)[nH]c(/C=C2\C(=O)Nc3ccc(F)cc32)c1C`, for which the GI50 was 1.77 µM and 1.53 µM and 1.32 µM; the TGI is > 10 µM and 6.48 µM and 9.5 µM.
With `C[C@H](Cn1ncnn1)Nc1ncc2cc(Oc3ccc(F)cc3F)c(=O)n(C)c2n1`, the GI50 was greater than 25 µM and the total growth inhibition concentration (TGI) was greater than 25 µM.
Molecule `N=S(c1ccccc1)c1ccccc1[N+](=O)[O-]` (stereo not given) yielded a total growth inhibition concentration (TGI) of 31 µM.
On the same count and under the same terms, the value for `Cc1ccc(S(=O)(=O)N/N=C(\c2nc3ccc([N+](=O)[O-])cc3[nH]c2=O)C(O)c2ccccc2Cl)cc1` (stereo not given) was greater than 100 µM.
On the same count and under the same terms, the same measure for `COC1OC(C)C(OCc2ccccc2)C(OS(=O)(=O)c2ccc(C)cc2)C1OS(=O)(=O)c1ccc(C)cc1` (stereo not given): greater than 100 µM.
With `Cc1ncc(C(=O)Nc2ccc(CN3CCN(C)CC3)c(C(F)(F)F)c2)cc1C#Cc1cnc(NC2CC2)c2ncccc12`, the GI50 was 0.577 µM and the total growth inhibition concentration (TGI) was 1.04 µM.
For `CCCCCCCCCCN=C(c1ccc(N(C)C)cc1)c1ccc(N(C)C)cc1` the same measures were 2.47 µM and greater than 73.9 µM.
For `CCCCCCCCCCCCCCCCCCNC(=O)[C@H]1CSC(c2cccs2)N1` (stereo not given in full) the same measures were 30.9 µM and greater than 50 µM.

The next experiment relates to K-562 leukemia. Description: DTP human tumour cell line panel, 48 h.
Take `O=S(=O)(CCOCc1ccc(-c2ccc3ncnc(Nc4ccc(OCc5cccc(F)c5)c(Cl)c4)c3c2)o1)c1ccccc1`: the GI50 was greater than 25 µM and the TGI was greater than 25 µM.
In the case of `CNC(=O)c1cc2c(Oc3ccc(NC(=O)C4(C(=O)Nc5ccc(F)cc5)CC4)cc3)ccnc2cc1OC`, the GI50 was 0.37 µM and the total growth inhibition concentration (TGI) stood at 3.4 µM.
For the molecule `O=S1(=O)NCCCN1CCNc1nccc(-c2c(-c3cccc(O)c3)nc3sccn23)n1`, the GI50 was 21.6 µM and the TGI was greater than 100 µM.
For `O=C(c1ccc2ccccc2c1)c1c(C(F)(F)F)n([O-])c2ccc(Cl)cc2[n+]1=O` the same measures were 1.22 µM and 2.65 µM.
In the case of `Cc1cn(C2OC(C)(CO)C(O)C2O)c(=O)[nH]c1=O` (stereo not given), the TGI is greater than 100 µM.
As for `NC(=O)c1cccc(Nc2nccc(Nc3cccc(F)c3)n2)c1`, the GI50 was 8.13 µM and the concentration for total growth inhibition (TGI) was greater than 25 µM.
In the case of `CCN(CC)CCNC(=O)c1c(C)[nH]c(/C=C2\C(=O)Nc3ccc(F)cc32)c1C`, the GI50 was 2.29 µM and 3.22 µM and 1.53 µM; the total growth inhibition concentration (TGI) was > 10 µM and 9.75 µM and 5.57 µM.
Consider `C[C@H](Cn1ncnn1)Nc1ncc2cc(Oc3ccc(F)cc3F)c(=O)n(C)c2n1`, for which the GI50 was greater than 25 µM and the TGI is greater than 25 µM.
Molecule `N=S(c1ccccc1)c1ccccc1[N+](=O)[O-]` (stereo not given) registered a total growth inhibition concentration (TGI) of 45 µM.
With `Cc1ccc(S(=O)(=O)N/N=C(\c2nc3ccc([N+](=O)[O-])cc3[nH]c2=O)C(O)c2ccccc2Cl)cc1` (stereo not given), the TGI is greater than 100 µM.
On the same count and under the same terms, the value for `COC1OC(C)C(OCc2ccccc2)C(OS(=O)(=O)c2ccc(C)cc2)C1OS(=O)(=O)c1ccc(C)cc1` (stereo not given) was greater than 100 µM.
`Cc1ncc(C(=O)Nc2ccc(CN3CCN(C)CC3)c(C(F)(F)F)c2)cc1C#Cc1cnc(NC2CC2)c2ncccc12`: the 50% growth inhibitory concentration (GI50) was 0.0211 µM and the total growth inhibition concentration (TGI) is 0.476 µM.
For `CCCCCCCCCCN=C(c1ccc(N(C)C)cc1)c1ccc(N(C)C)cc1` the same measures were 0.207 µM and greater than 100 µM.
For `CCCCCCCCCCCCCCCCCCNC(=O)[C@H]1CSC(c2cccs2)N1` (stereo not given in full) the same measures were 0.761 µM and 2.14 µM.

In a further experiment the test system is SK-MEL-2 melanoma. Description: DTP human tumour cell line panel, 48 h.
With `O=S(=O)(CCOCc1ccc(-c2ccc3ncnc(Nc4ccc(OCc5cccc(F)c5)c(Cl)c4)c3c2)o1)c1ccccc1`, the GI50 is greater than 25 µM and the TGI is greater than 25 µM.
Consider `CNC(=O)c1cc2c(Oc3ccc(NC(=O)C4(C(=O)Nc5ccc(F)cc5)CC4)cc3)ccnc2cc1OC`, for which the GI50 is 2.02 µM and the TGI turned out to be 5.92 µM.
For `O=S1(=O)NCCCN1CCNc1nccc(-c2c(-c3cccc(O)c3)nc3sccn23)n1` the same measures were 2.57 µM and 9.66 µM.
For `O=C(c1ccc2ccccc2c1)c1c(C(F)(F)F)n([O-])c2ccc(Cl)cc2[n+]1=O` the same measures were 1.74 µM and 3.2 µM.
As to `Cc1cn(C2OC(C)(CO)C(O)C2O)c(=O)[nH]c1=O` (stereo not given), the total growth inhibition concentration (TGI) is greater than 100 µM.
In the case of `NC(=O)c1cccc(Nc2nccc(Nc3cccc(F)c3)n2)c1`, the GI50 is 7.37 µM and the TGI amounted to 24.4 µM.
With `CCN(CC)CCNC(=O)c1c(C)[nH]c(/C=C2\C(=O)Nc3ccc(F)cc32)c1C`, the GI50 was 1.38 µM and 2.1 µM and 4.56 µM; the total growth inhibition concentration (TGI) is 9.46 µM and 4.82 µM and 13.2 µM.
In the case of `C[C@H](Cn1ncnn1)Nc1ncc2cc(Oc3ccc(F)cc3F)c(=O)n(C)c2n1`, the GI50 is greater than 25 µM and the TGI was greater than 25 µM.
As to `N=S(c1ccccc1)c1ccccc1[N+](=O)[O-]` (stereo not given), the TGI turned out to be 67.7 µM.
Same read-out and setting: the same measure for `Cc1ccc(S(=O)(=O)N/N=C(\c2nc3ccc([N+](=O)[O-])cc3[nH]c2=O)C(O)c2ccccc2Cl)cc1` (stereo not given): greater than 100 µM.
Still for that read-out and setting: the same measure for `COC1OC(C)C(OCc2ccccc2)C(OS(=O)(=O)c2ccc(C)cc2)C1OS(=O)(=O)c1ccc(C)cc1` (stereo not given): greater than 100 µM.
For the molecule `Cc1ncc(C(=O)Nc2ccc(CN3CCN(C)CC3)c(C(F)(F)F)c2)cc1C#Cc1cnc(NC2CC2)c2ncccc12`, the GI50 was 1.66 µM and the TGI worked out at 5.54 µM.
For `CCCCCCCCCCN=C(c1ccc(N(C)C)cc1)c1ccc(N(C)C)cc1` the same measures were 0.492 µM and 33.2 µM.
For `CCCCCCCCCCCCCCCCCCNC(=O)[C@H]1CSC(c2cccs2)N1` (stereo not given in full), the GI50 is 0.957 µM and the TGI came out at 1.79 µM.

The subject of the next experiment is OVCAR-4 ovarian. In words: DTP human tumour cell line panel, 48 h.
As to `O=S(=O)(CCOCc1ccc(-c2ccc3ncnc(Nc4ccc(OCc5cccc(F)c5)c(Cl)c4)c3c2)o1)c1ccccc1`, the GI50 is greater than 25 µM and the total growth inhibition concentration (TGI) is greater than 25 µM.
Consider `CNC(=O)c1cc2c(Oc3ccc(NC(=O)C4(C(=O)Nc5ccc(F)cc5)CC4)cc3)ccnc2cc1OC`, for which the GI50 was 3.55 µM and the TGI is greater than 100 µM.
For `O=S1(=O)NCCCN1CCNc1nccc(-c2c(-c3cccc(O)c3)nc3sccn23)n1` the same measures were 17.5 µM and greater than 96.1 µM.
On to `O=C(c1ccc2ccccc2c1)c1c(C(F)(F)F)n([O-])c2ccc(Cl)cc2[n+]1=O`, for which the GI50 is 1.39 µM and the TGI came out at 2.72 µM.
Take `Cc1cn(C2OC(C)(CO)C(O)C2O)c(=O)[nH]c1=O` (stereo not given): the TGI is greater than 100 µM.
With `NC(=O)c1cccc(Nc2nccc(Nc3cccc(F)c3)n2)c1`, the GI50 was 4.37 µM and the TGI was greater than 25 µM.
On to `CCN(CC)CCNC(=O)c1c(C)[nH]c(/C=C2\C(=O)Nc3ccc(F)cc32)c1C`, for which the GI50 was > 10 µM and 2.41 µM and 2.76 µM; the total growth inhibition concentration (TGI) was > 10 µM and 9.23 µM and 15 µM.
With `C[C@H](Cn1ncnn1)Nc1ncc2cc(Oc3ccc(F)cc3F)c(=O)n(C)c2n1`, the GI50 is greater than 25 µM and the TGI is greater than 25 µM.
The molecule `N=S(c1ccccc1)c1ccccc1[N+](=O)[O-]` (stereo not given) returned a total growth inhibition concentration (TGI) of 28.4 µM.
Same read-out and setting: the value for `Cc1ccc(S(=O)(=O)N/N=C(\c2nc3ccc([N+](=O)[O-])cc3[nH]c2=O)C(O)c2ccccc2Cl)cc1` (stereo not given) was greater than 100 µM; that for `COC1OC(C)C(OCc2ccccc2)C(OS(=O)(=O)c2ccc(C)cc2)C1OS(=O)(=O)c1ccc(C)cc1` (stereo not given) was greater than 100 µM.
Consider `Cc1ncc(C(=O)Nc2ccc(CN3CCN(C)CC3)c(C(F)(F)F)c2)cc1C#Cc1cnc(NC2CC2)c2ncccc12`, for which the GI50 is 1.49 µM and the TGI was 3.27 µM.
For `CCCCCCCCCCN=C(c1ccc(N(C)C)cc1)c1ccc(N(C)C)cc1` the same measures were 3.29 µM and greater than 83.6 µM.
For `CCCCCCCCCCCCCCCCCCNC(=O)[C@H]1CSC(c2cccs2)N1` (stereo not given in full) the same measures were 1.56 µM and greater than 50 µM.

The test system of the next experiment is HOP-62 NSCLC. Description: DTP human tumour cell line panel, 48 h.
As to `O=S(=O)(CCOCc1ccc(-c2ccc3ncnc(Nc4ccc(OCc5cccc(F)c5)c(Cl)c4)c3c2)o1)c1ccccc1`, the GI50 was greater than 25 µM and the TGI is greater than 25 µM.
As for `CNC(=O)c1cc2c(Oc3ccc(NC(=O)C4(C(=O)Nc5ccc(F)cc5)CC4)cc3)ccnc2cc1OC`, the GI50 was 2.67 µM and the TGI is greater than 100 µM.
For `O=S1(=O)NCCCN1CCNc1nccc(-c2c(-c3cccc(O)c3)nc3sccn23)n1` the same measures were 42.3 µM and greater than 100 µM.
For `O=C(c1ccc2ccccc2c1)c1c(C(F)(F)F)n([O-])c2ccc(Cl)cc2[n+]1=O` the same measures were 1.86 µM and 3.46 µM.
In the case of `Cc1cn(C2OC(C)(CO)C(O)C2O)c(=O)[nH]c1=O` (stereo not given), the total growth inhibition concentration (TGI) was greater than 100 µM.
In the case of `NC(=O)c1cccc(Nc2nccc(Nc3cccc(F)c3)n2)c1`, the GI50 is 8.24 µM and the TGI was greater than 22.5 µM.
Regarding `CCN(CC)CCNC(=O)c1c(C)[nH]c(/C=C2\C(=O)Nc3ccc(F)cc32)c1C`, the GI50 is 5.27 µM and 2.42 µM and 2.64 µM; the TGI was > 10 µM and 5.94 µM and 15.3 µM.
On to `C[C@H](Cn1ncnn1)Nc1ncc2cc(Oc3ccc(F)cc3F)c(=O)n(C)c2n1`, for which the GI50 is greater than 25 µM and the concentration for total growth inhibition (TGI) is greater than 25 µM.
As to `N=S(c1ccccc1)c1ccccc1[N+](=O)[O-]` (stereo not given), the total growth inhibition concentration (TGI) worked out at 52.6 µM.
On the same count and under the same terms, the same measure for `Cc1ccc(S(=O)(=O)N/N=C(\c2nc3ccc([N+](=O)[O-])cc3[nH]c2=O)C(O)c2ccccc2Cl)cc1` (stereo not given): greater than 100 µM; for `COC1OC(C)C(OCc2ccccc2)C(OS(=O)(=O)c2ccc(C)cc2)C1OS(=O)(=O)c1ccc(C)cc1` (stereo not given): greater than 100 µM.
`Cc1ncc(C(=O)Nc2ccc(CN3CCN(C)CC3)c(C(F)(F)F)c2)cc1C#Cc1cnc(NC2CC2)c2ncccc12`: the GI50 was 1.41 µM and the total growth inhibition concentration (TGI) was found to be 3.06 µM.
For `CCCCCCCCCCN=C(c1ccc(N(C)C)cc1)c1ccc(N(C)C)cc1` the same measures were 1.06 µM and 31.8 µM.
For `CCCCCCCCCCCCCCCCCCNC(=O)[C@H]1CSC(c2cccs2)N1` (stereo not given in full) the same measures were 0.959 µM and 1.71 µM.
